These results are taken from patent publication US8791061B2, “Peptides for treating and preventing immune-related disorders, including treating and preventing infection by modulating innate immunity” (Soligenix, Inc., priority 2005, dated 2014).

“Also recorded” adds a separate entry of the source.

Assay [1] concerns methicillin-resistant Staphlococcus aureus (MRSA strain ATCC 33591, UC6685). As to the kind of experiment: Enhancing the efficacy of antibiotic treatment, MRSA infection of CD-1 mice. The format is in vivo. The note with it: peptide 60 mg/kg IP 24 hours prior to infection, in combination with vancomycin s.c. 1 and 5 hours post-infection; relative to vehicle or antibiotic alone; 5 or 8 days. As for the experimental part:
Twenty-four hours prior to infection, peptide was administered at 60 mg/kg via IP injection to CD-1 mice (N=10 animals/group; FIG. 8A: male mice, FIG. 8B: female mice). Mice were then infected with methicillin-resistant Staphlococcus aureus (MRSA strain ATCC 33591 in FIG. 8A and UC6685 in FIG. 8B) via IP injection (1.5*10^7 in FIG. 8A and ˜4*10^5 in FIG. 8B). Vancomycin at the given dosage was administered twice subcutaneously 1 and 5 hours post-infection. Survival was monitored over 5 (FIG. 8A) or 8 (FIG. 8B) days.

Assay [2] relates to S. aureus 25923. In words: Prophylactic in vivo protection, peptide before IP S. aureus infection of mice. The note with it: for protection (residual bacterial counts CFU/ml in intraperitoneal lavage fluid): mice, peptide IP 24 hours prior to infection, 12 mg/kg (SEQ 1), 11.5 mg/kg (SEQ 5), 24 hours post-infection; for mouse dead (peptide treatment): prophylactic peptide IP, control 2 mice dead. As for the experimental part:
Twenty-four hours prior to infection, peptide was administered at 12 mg/kg (SEQ. ID. NO. 1, FIG. 3A) and 11.5 mg/kg (SEQ. ID. No. 5, FIG. 3B), via IP injection. Mice were then infected with S. aureus 25923 via IP injection. Twenty-four hours post-infection, surviving animals were sacrificed and intraperitoneal lavage fluid was plated to determine residual bacterial counts (# colony forming units per ml (CFU/ml)) in the presence and absence of peptide treatment.
Dead animals were assigned the highest bacterial count of any animal in the study. The peptides of SEQ. ID.

Assay [3] deals with T1, DPPIV (Mus musculus, UniProt P28843).
T1 construct: The plasma was transferred to a 96-well assay plate for the DPPIV assay; from tissue; host or cells: pooled heparinized whole blood of ICR mice; plasma isolated after incubation
As to the kind of experiment: Plasma DPPIV activity assay with mouse blood. The format is biochemical. The note with it: peptide 0.82 mM in mouse blood, 2 h at 37° C.; relative to saline control set to 100%. As for the experimental part: Mouse blood was obtained by cardiac puncture from ICR mice and collected in heparinized blood collection tubes. Blood from several mice was pooled and aliquoted into […]. The peptide was dissolved in acetate buffered saline, pH 5.5, to a concentration of 9 mM. Of this stock solution 30 μL were added to 300 μL of blood and mixed by resuspension (concentration in blood 0.82 mM). For the control, 30 μL of blank acetate buffered saline was added to 300 μL of blood. Each peptide group was prepared in triplicate, whereas the control was prepared in six replicates. The samples were incubated at 37° C. in closed microtubes for two hours. After incubation the plasma was isolated from the samples by centrifugation at 4000 rcf. The plasma was transferred to a 96-well assay plate for the DPPIV assay. The assay was started by adding 5 μL of the DPPIV substrate gly-pro-p-nitroanilide (16 mM in de-ionized water) to 95 μl of plasma (concentration in plasma 0.8 mM) and the increase in UV absorbance (405 nm) was monitored over a 20 min time period. The rate of the production of p-nitroaniline by enzymatic cleavage of gly-pro-p-nitroanilide was taken as the activity of DPPIV (Durinx C et al., (2001) “Reference values for plasma dipeptidyl-peptidase IV activity and their association with other laboratory parameters”. Clin Chem Lab Med. 39(2):155-9.)
The effect of the peptides on the activity of DPPIV was observed. Results are presented as normalized, averaged % activity relative to saline control (set to 100%). Anything less than 100% activity represents a reduction in DPPIV activity.
In one aspect of the invention, a reduction by of DPPIV activity by about, or in one embodiment, at least, 25% (i.e. to about 75%+/−5%) was deemed to be active. A person skilled in the art would appreciate that the desired level of activity may vary depending on the use of the peptides.

The subject of assay [4] is S. aureus 25923. As to the kind of experiment: In vivo protection, mice infected IP with S. aureus, peptide after infection. The note with it: peptide IP 4 hours after infection, 9-24 mg/kg depending on peptide, 24 hours post-infection, vs control. On the procedure: Mice were infected with S. aureus 25923 via intraperitoneal (IP) injection. Four hours later, the peptide of SEQ ID NOs:1, 4, 5, 6, 45, and 47 were administered at 12 mg/kg and 24 mg/kg for SEQ. ID. NO. 1 (FIGS. 2A and 2B), 9.6 mg/kg for SEQ. ID. NO. 5 (FIG. 2C), 13 mg/kg for SEQ. ID. NO. 47 (FIG. 2D), 12 mg/kg for SEQ. ID. NO. 4 (FIG. 2E), 9 mg/kg for SEQ. ID. NO. 6 (FIG. 2F), and 13 mg/kg for SEQ. ID. NO. 45 (FIG. 2G), via IP injection. Twenty-four hours post-infection, surviving animals were sacrificed, and intraperitoneal lavage fluid was plated to determine residual bacterial counts (# colony forming units per ml (CFU/ml)) in the presence and absence of peptide treatment.
Dead animals were assigned the highest bacterial count of any animal in the study.

Assay [5] deals with S. aureus 25923. In words: Non-antimicrobial activity, WST-1 colorimetric bacterial viability assay. Type of assay: cell-based. The note with it: peptide 200 μM, 2 hours growth, compared with erythromycin 120 μg/ml. On the procedure:
Bacteria (S. aureus 25923) were seeded into wells containing peptide (200 μM), vehicle (Tris), or antibiotic (erythromycin; 120 μg/ml). The bacteria were allowed to grow for 2 hours. Thereafter, bacterial viability was determined utilizing a WST-1 colorimetric viability assay (catalogue number 1 644 807; Roche Diagnostics). DMEM and DMEM+WST-1 were included as background controls.
On the technique in general: Tetrazolium assays rely on reduction of a dye to a coloured formazan, in cell work by metabolically active cells.

Assay [6] has as its target T1, DPPIV. As to the kind of experiment: Comparative DPPIV dose response curves in whole ICR mouse blood. Type of assay: biochemical. The settings on record: 2 h at 37° C., different concentrations. As for the experimental part:
Dose response of SEQ. ID. NO. 5 of the present invention and SEQ. ID NO. 7 in PCT/CA02/01830, filed Dec. 2, 2002 (KSRIVPAIPVSLL). Peptides were incubated at different concentrations with whole ICR mouse blood for 2 h at 37° C. Blood incubated with acetate buffered saline (20 mM) was used as a control. Following incubation, plasma was isolated by centrifugation for 10 minutes at 4000 rcf. The substrate Gly-Pro-p-nitroanilide (0.8 mM) was added to the plasma and the enzymatic rate of DPPIV was determined by monitoring the increase in UV absorbance of the product p-nitroaniline. […] ID. NO.

Assay [7] concerns LPS stimulated cytokine response. In words: Anti-inflammatory activity: ex vivo LPS stimulated cytokine response of PBMCs after in vivo peptide treatment. On the set-up: species or system mouse. The settings on record: 100 mg/kg intravenously, blood collected after 4 hours, PBMCs stimulated with LPS. On the procedure: The effect of peptide treatment on the ex vivo LPS stimulated cytokine response was measured. In these studies, SEQ ID NO 5 was administered intravenously at 100 mg/kg and after 4 hours, blood was collected from each mouse. PBMCs were isolated and stimulated with LPS and the resulting cytokine levels were determined.

Assay [8] addresses T2, DPPIV (Homo sapiens, UniProt P27487).
T2 construct: from tissue; host or cells: heparinized whole blood of human volunteer donors; plasma isolated after incubation
As to the kind of experiment: Plasma DPPIV activity assay with human blood. The note with it: 2 hours at 37° C., dose response. Type of assay: biochemical. As for the experimental part: Human blood was obtained by qualified medical personnel from volunteer donors and collected in heparinized blood collection tubes. Blood was aliquoted into 300 μL aliquots. The peptides were dissolved in acetate buffered saline, pH 5.5. 30 μL of various concentrations were added to 300 μL of blood and mixed by resuspension (final concentration in blood as indicated in FIG. 6). For the control, 30 μL of blank acetate buffered saline was added to 300 μL of blood. Each concentration was prepared in triplicate, whereas the control was prepared in six replicates. The samples were incubated at 37° C. in closed microtubes for two hours. After incubation the plasma was isolated from the samples by centrifugation at 4000 rcf. The plasma was transferred to a 96-well assay plate for the DPPIV assay. The assay was started by adding 5 μL of the DPPIV substrate gly-pro-p-nitroanilide (16 mM in de-ionized water) to 95 μL of plasma (concentration in plasma 0.8 mM) and the increase in UV absorbance (405 nm) was monitored over a 20 min time period. The rate of the production of p-nitroaniline by enzymatic cleavage of gly-pro-p-nitroanilide was taken as the activity of DPPIV (Durinx C et al., (2001) “Reference values for plasma dipeptidyl-peptidase IV activity and their association with other laboratory parameters”. Clin Chem Lab Med. 39(2):155-9.)

T1 sequence (P28843 37-760 limits assumed): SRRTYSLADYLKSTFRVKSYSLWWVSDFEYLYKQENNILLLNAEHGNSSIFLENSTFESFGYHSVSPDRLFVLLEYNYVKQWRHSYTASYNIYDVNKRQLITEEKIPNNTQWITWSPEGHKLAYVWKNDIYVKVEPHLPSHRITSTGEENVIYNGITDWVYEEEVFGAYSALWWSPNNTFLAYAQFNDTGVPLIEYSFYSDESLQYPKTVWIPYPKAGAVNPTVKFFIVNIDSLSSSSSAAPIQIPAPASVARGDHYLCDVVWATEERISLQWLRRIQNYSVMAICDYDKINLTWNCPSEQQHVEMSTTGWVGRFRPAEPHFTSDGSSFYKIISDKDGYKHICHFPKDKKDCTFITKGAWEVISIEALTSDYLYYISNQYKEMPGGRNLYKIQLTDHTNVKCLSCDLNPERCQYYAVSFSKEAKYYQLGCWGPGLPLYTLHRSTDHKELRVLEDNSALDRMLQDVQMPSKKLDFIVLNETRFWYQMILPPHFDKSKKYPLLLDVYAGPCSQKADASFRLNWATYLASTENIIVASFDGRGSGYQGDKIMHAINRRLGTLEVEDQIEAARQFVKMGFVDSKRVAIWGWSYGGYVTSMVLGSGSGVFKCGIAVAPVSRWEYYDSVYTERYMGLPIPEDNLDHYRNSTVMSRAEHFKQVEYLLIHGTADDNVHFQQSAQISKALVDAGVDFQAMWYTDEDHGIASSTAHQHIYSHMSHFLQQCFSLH
T2 sequence (P27487 39-766 limits assumed): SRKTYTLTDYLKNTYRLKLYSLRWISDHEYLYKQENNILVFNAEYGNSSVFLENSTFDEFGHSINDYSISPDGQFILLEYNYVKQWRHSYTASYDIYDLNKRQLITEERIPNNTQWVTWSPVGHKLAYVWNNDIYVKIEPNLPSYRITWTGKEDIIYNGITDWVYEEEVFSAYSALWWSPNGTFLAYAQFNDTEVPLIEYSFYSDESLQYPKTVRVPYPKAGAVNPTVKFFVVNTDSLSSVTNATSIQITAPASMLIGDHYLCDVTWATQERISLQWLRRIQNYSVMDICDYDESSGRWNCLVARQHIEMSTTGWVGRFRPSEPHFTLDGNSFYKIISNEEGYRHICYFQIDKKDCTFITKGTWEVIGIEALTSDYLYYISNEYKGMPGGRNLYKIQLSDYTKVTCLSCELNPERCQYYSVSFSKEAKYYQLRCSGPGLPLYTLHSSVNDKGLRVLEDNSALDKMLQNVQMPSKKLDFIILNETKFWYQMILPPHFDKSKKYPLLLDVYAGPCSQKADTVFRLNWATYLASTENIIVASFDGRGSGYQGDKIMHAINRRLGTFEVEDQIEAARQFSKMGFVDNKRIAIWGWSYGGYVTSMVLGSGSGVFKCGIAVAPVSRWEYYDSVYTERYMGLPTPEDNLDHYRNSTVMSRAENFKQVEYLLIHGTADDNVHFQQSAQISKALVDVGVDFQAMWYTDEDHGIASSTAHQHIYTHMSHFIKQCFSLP

In the case of “KSRIVP (IMMUNOLOGICAL PEPTIDE) [SEQ ID NO 1]”, in assay [1], the survival entry is “enhanced survival”.
“1 (KSRIVP; IMMUNOLOGICAL PEPTIDE) [compound 1]”: in the assay with S. aureus 25923 [2], the “protection (residual bacterial counts CFU/ml in intraperitoneal lavage fluid)” value was “clearly demonstrated protection” and the “mouse dead (peptide treatment)” value is listed as 0. The “% DPPIV Activity (Saline)” value with DPPIV [3] is listed as 76%. In addition, the “protection (residual bacterial counts CFU/ml in intraperitoneal lavage fluid)” value in the assay with S. aureus 25923 [4] was “clearly demonstrated protection”. In addition, the “antimicrobial activity (bacterial viability)” value in the assay with S. aureus 25923 [5] was “lacked antimicrobial activity”.
Consider “KSRIVPAIPVSLL [ID NO; 7 in PCT/CA02/01830, filed Dec; 2, 2002, reference compound]”, for which, in the assay with DPPIV [6], the DPPIV dose response entry is “A similar dose response was absent”.
In the case of “5 (RIVPA; IMMUNOLOGICAL PEPTIDE) [compound 5]”, in the assay with S. aureus 25923 [2], the “protection (residual bacterial counts CFU/ml in intraperitoneal lavage fluid)” value was “clearly demonstrated protection” and the “mouse dead (peptide treatment)” value is recorded as 0. In addition, the “% DPPIV Activity (Saline)” value in the assay with DPPIV [3] turned out to be 66%. Moreover, the “protection (residual bacterial counts CFU/ml in intraperitoneal lavage fluid)” value in the assay with S. aureus 25923 [4] is listed as “clearly demonstrated protection”. Further, the “antimicrobial activity (bacterial viability)” value in the assay on S. aureus 25923 [5] is reported as “lack of activity; also recorded: lacked antimicrobial activity”.
For RIVPA [SEQ ID NO 5], the DPPIV dose response result on DPPIV [6] was “larger decrease in DPPIV activity with increasing peptide concentration”. Besides, the “inflammatory response to LPS stimulation (cytokine levels)” value in assay [7] was “decreased inflammatory response to LPS stimulation”. For the same substance, the “plasma DPPIV activity in human blood” value on DPPIV [8] is “comparable to that determined in mouse blood”. Further, the survival result in assay [1] is on record as “enhanced survival”.
